Species: Rattus norvegicus
Experiment: Open TG-GATES - Regimen: Single
Assay type: toxicity, organism-based, Sprague-Dawley
Parameters: regimen Single, gender Male, age 6 weeks
Details: in vivo, po, route gavage; for gamma-GTP / ALP / ALT / AST / BUN / Ca / Cl / DBIL / GLC / IP / K / LDH / Na / PL / RALB / TBIL / TC / TP / CRE: tissue Plasma; for APTT / Bas / Eos / Fbg / Hb / Ht / Lym / MCH / MCHC / MCV / Mono / Neu / PT / Plat / RBC / Ret / WBC: tissue Blood; for KIDNEY_L / KIDNEY_R / KIDNEY_TOTAL: tissue Kidney; for LIVER: tissue Liver
[1] = 15 mg/kg, 24 h, dose level High
[2] = 50 mg/kg, 3 h, dose level Middle
[3] = 50 mg/kg, 6 h, dose level Middle

Structure (SMILES): O=P1(N(CCCl)CCCl)NCCCO1 (stereo unspecified) [CYCLOPHOSPHAMIDE ANHYDROUS]
- gamma-GTP (15 mg/kg, 9 h, dose level High): 1 IU/L
- ALP (15 mg/kg, 9 h, dose level Low): 1388.6 IU/L
- ALT (15 mg/kg, 9 h, dose level Low): 31.2 IU/L
- AST (15 mg/kg, 9 h, dose level Low): 67.6 IU/L
- BUN (15 mg/kg, 9 h, dose level Low): 8.2 mg/dL
- Ca (15 mg/kg, 9 h, dose level Low): 10.6 mg/dL
- Cl (15 mg/kg, 9 h, dose level Low): 106.6 meq/L
- DBIL (15 mg/kg, 9 h, dose level Low): 0.012 mg/dL
- GLC (15 mg/kg, 9 h, dose level Low): 163.8 mg/dL
- IP (15 mg/kg, 9 h, dose level Low): 10.3 mg/dL
- K (15 mg/kg, 9 h, dose level Low): 4.4 meq/L
- LDH (15 mg/kg, 9 h, dose level Low): 55.2 IU/L
- Na (15 mg/kg, 9 h, dose level Low): 142.2 meq/L
- PL (15 mg/kg, 9 h, dose level Low): 135.8 mg/dL
- RALB (15 mg/kg, 9 h, dose level Low): 2.5 g/dL
- TBIL (15 mg/kg, 9 h, dose level Low): 0.058 mg/dL
- TC (15 mg/kg, 9 h, dose level Low): 77.4 mg/dL
- TP (15 mg/kg, 9 h, dose level Low): 5.2 g/dL
- gamma-GTP (15 mg/kg, 9 h, dose level Low): 1.2 IU/L
- TERMINAL_BW [1]: 195.1 g
- TERMINAL_BW (15 mg/kg, 24 h, dose level Low): 205.2 g
- APTT [1]: 21.5 s
- Bas [1]: 0%
- Eos [1]: 0.8%
- Fbg [1]: 304 mg/dL
- Hb [1]: 13.6 g/dL
- Ht [1]: 40.8%
- Lym [1]: 88.2%
- MCH [1]: 21.2 pg
- MCHC [1]: 33.4%
- MCV [1]: 63.5 fL
- Mono [1]: 2.4%
- Neu [1]: 8%
- PT [1]: 16.2 s
- Plat [1]: 117.1 x10_4/uL
- RBC [1]: 643 x10_4/ul
- Ret [1]: 5.3%
- WBC [1]: 44.1 x10_2/uL
- APTT (15 mg/kg, 24 h, dose level Low): 17.5 s
- Fbg (15 mg/kg, 24 h, dose level Low): 286.4 mg/dL
- Hb (15 mg/kg, 24 h, dose level Low): 12.9 g/dL
- Ht (15 mg/kg, 24 h, dose level Low): 38.1%
- Lym (15 mg/kg, 24 h, dose level Low): 85.4%
- MCH (15 mg/kg, 24 h, dose level Low): 20.7 pg
- MCHC (15 mg/kg, 24 h, dose level Low): 34%
- MCV (15 mg/kg, 24 h, dose level Low): 60.9 fL
- Mono (15 mg/kg, 24 h, dose level Low): 2%
- Neu (15 mg/kg, 24 h, dose level Low): 11.2%
- PT (15 mg/kg, 24 h, dose level Low): 14.1 s
- Plat (15 mg/kg, 24 h, dose level Low): 116.3 x10_4/uL
- RBC (15 mg/kg, 24 h, dose level Low): 625.2 x10_4/ul
- Ret (15 mg/kg, 24 h, dose level Low): 6.8%
- WBC (15 mg/kg, 24 h, dose level Low): 48.9 x10_2/uL
- KIDNEY_L [1]: 0.9 g
- KIDNEY_R [1]: 0.9 g
- KIDNEY_TOTAL [1]: 1.8 g
- LIVER [1]: 8.6 g
- LIVER (15 mg/kg, 24 h, dose level Low): 9.1 g
- ALP [1]: 1751 IU/L
- ALT [1]: 45 IU/L
- AST [1]: 71 IU/L
- BUN [1]: 14.6 mg/dL
- CRE [1]: 0.2 mg/dL
- Ca [1]: 10.8 mg/dL
- Cl [1]: 104.8 meq/L
- DBIL [1]: 0.006 mg/dL
- GLC [1]: 179 mg/dL
- IP [1]: 8.4 mg/dL
- K [1]: 4.3 meq/L
- LDH [1]: 195.4 IU/L
- Na [1]: 142.4 meq/L
- PL [1]: 143.6 mg/dL
- RALB [1]: 3.1 g/dL
- TBIL [1]: 0.02 mg/dL
- TC [1]: 75 mg/dL
- TP [1]: 5.5 g/dL
- gamma-GTP [1]: 1.2 IU/L
- ALP (15 mg/kg, 24 h, dose level Low): 1404.4 IU/L
- ALT (15 mg/kg, 24 h, dose level Low): 40.2 IU/L
- AST (15 mg/kg, 24 h, dose level Low): 71.4 IU/L
- BUN (15 mg/kg, 24 h, dose level Low): 14.4 mg/dL
- Ca (15 mg/kg, 24 h, dose level Low): 11.1 mg/dL
- Cl (15 mg/kg, 24 h, dose level Low): 105.2 meq/L
- DBIL (15 mg/kg, 24 h, dose level Low): 0.02 mg/dL
- GLC (15 mg/kg, 24 h, dose level Low): 176.4 mg/dL
- IP (15 mg/kg, 24 h, dose level Low): 8.1 mg/dL
- K (15 mg/kg, 24 h, dose level Low): 4.5 meq/L
- LDH (15 mg/kg, 24 h, dose level Low): 82 IU/L
- Na (15 mg/kg, 24 h, dose level Low): 140.8 meq/L
- PL (15 mg/kg, 24 h, dose level Low): 159.4 mg/dL
- RALB (15 mg/kg, 24 h, dose level Low): 2.6 g/dL
- TBIL (15 mg/kg, 24 h, dose level Low): 0.06 mg/dL
- TC (15 mg/kg, 24 h, dose level Low): 87.6 mg/dL
- TP (15 mg/kg, 24 h, dose level Low): 5.6 g/dL
- gamma-GTP (15 mg/kg, 24 h, dose level Low): 1 IU/L
- TERMINAL_BW [2]: 190.4 g
- APTT [2]: 20 s
- Bas [2]: 0%
- Eos [2]: 0.8%
- Fbg [2]: 281.6 mg/dL
- Hb [2]: 13 g/dL
- Ht [2]: 38.9%
- Lym [2]: 78%
- MCH [2]: 20.6 pg
- MCHC [2]: 33.4%
- MCV [2]: 61.6 fL
- Mono [2]: 2.6%
- Neu [2]: 17.6%
- PT [2]: 13.8 s
- Plat [2]: 111.1 x10_4/uL
- RBC [2]: 631.6 x10_4/ul
- Ret [2]: 9.2%
- WBC [2]: 101.7 x10_2/uL
- KIDNEY_L [2]: 0.8 g
- KIDNEY_R [2]: 0.8 g
- KIDNEY_TOTAL [2]: 1.6 g
- LIVER [2]: 8.3 g
- ALP [2]: 1500.2 IU/L
- ALT [2]: 35.8 IU/L
- AST [2]: 72.6 IU/L
- BUN [2]: 10 mg/dL
- CRE [2]: 0.2 mg/dL
- Ca [2]: 11.1 mg/dL
- Cl [2]: 104.8 meq/L
- DBIL [2]: 0.018 mg/dL
- GLC [2]: 171.8 mg/dL
- IP [2]: 8.7 mg/dL
- K [2]: 4.4 meq/L
- LDH [2]: 72.6 IU/L
- Na [2]: 140.2 meq/L
- PL [2]: 160.4 mg/dL
- RALB [2]: 2.4 g/dL
- TBIL [2]: 0.068 mg/dL
- TC [2]: 86.6 mg/dL
- TP [2]: 5.3 g/dL
- gamma-GTP [2]: 1.4 IU/L
- TERMINAL_BW [3]: 187.5 g
- APTT [3]: 17.2 s
- Bas [3]: 0%
- Eos [3]: 0.6%
- Fbg [3]: 278.4 mg/dL

Source: ChEMBL document CHEMBL3885861, “Open TG-GATES”
